According to the supplement of paper PMC12205070:

What was measured:
Assay in all cases: normalised number of viable cells after treatment (fraction of control); higher = more viable cells (less drug effect)
P8 Relapse = system: P8 Relapse (T-ALL xenograft cells from relapse)
Method: (§1)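 T-ALL PDX-derived cells (initial diagnosis or relapse samples of individual patients) co-cultured on hTERT-immortalized bone marrow MSCs in 384-well plates were treated with Cytarabine, Venetoclax, S-63845, A1331852 or FX1 (0.1 nM to 10,000 nM) for 72 h.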

P8 Initial = system: P8 Initial (T-ALL xenograft cells from diagnosis)
Method: as §1

P2 Initial = system: P2 Initial (T-ALL xenograft cells from diagnosis)
Method: as §1

P12 Initial = system: P12 Initial (T-ALL xenograft cells from diagnosis)
Method: as §1

P6 Relapse = system: P6 Relapse (T-ALL xenograft cells from relapse)
Method: as §1

P10 Initial = system: P10 Initial (T-ALL xenograft cells from diagnosis)
Method: as §1

P10 Relapse = system: P10 Relapse (T-ALL xenograft cells from relapse)
Method: as §1

P6 Initial = system: P6 Initial (T-ALL xenograft cells from diagnosis)
Method: as §1

P1 Initial = system: P1 Initial (T-ALL xenograft cells from diagnosis)
Method: as §1

P2 Relapse = system: P2 Relapse (T-ALL xenograft cells from relapse)
Method: as §1

P12 Relapse = system: P12 Relapse (T-ALL xenograft cells from relapse)
Method: as §1

P1 Relapse = system: P1 Relapse (T-ALL xenograft cells from relapse)
Method: as §1

Cc1c(-c2c(-c3ccc(F)o3)sc3ncnc(O[C@H](Cc4ccccc4OCc4ccnn4CC(F)(F)F)C(=O)O)c23)ccc(OCCN2CCN(C)CC2)c1Cl
normalised number of viable cells
Settings | 0.125 nM | 0.13 nM | 1 nM | 1.25 nM | 12.5 nM | 31.25 nM | 100 nM | 625 nM | 1250 nM | 10000 nM
P1 Initial | 1.16 | – | 1.05 | – | 0.838 | – | 0.231 | – | 0.054 | 0.0485
P1 Relapse | – | 1.26 | – | 1.15 | – | 0.987 | – | 0.131 | – | 0.039
P2 Initial | – | 0.99 | – | 0.918 | – | 0.86 | – | 0.197 | – | 0.129
P2 Relapse | – | 1.05 | – | 1.04 | – | 0.878 | – | 0.7035 | – | 0.068
P6 Initial | – | 1.02 | – | 1.08 | – | 0.638 | – | 0.0605 | – | 0.022
P6 Relapse | – | 1.07 | – | 0.884 | – | 1.02 | – | 0.483 | – | 0.035
P8 Initial | – | 1.09 | – | 1.08 | – | 1.04 | – | 0.54 | – | 0.0315
P8 Relapse | – | 0.992 | – | 1.05 | – | 1.02 | – | 0.9355 | – | 0.0655
P10 Initial | – | 1.29 | – | 1.17 | – | 0.639 | – | 0.225 | – | 0.0835
P10 Relapse | – | 1.02 | – | 1.15 | – | 1.08 | – | 0.785 | – | 0.0695
P12 Initial | – | 1.05 | – | 0.991 | – | 0.58 | – | 0.337 | – | 0.0575
P12 Relapse | – | 0.277 | – | 1.52 | – | 0.199 | – | 0.048 | – | 0.0695
